The nature of series [1]: Corrosion weight loss test on steel coupons in HCl. Details: Pitting Index: scale not given here. The source says: (§1) Such “acceptable” levels of corrosion are application-specific.
Series [2] in a line: Corrosion weight loss test on steel coupons in HCl. Details: Pitting Index: scale not given here.
Excerpt: as §1
The source holds these as a separate data set.

A short description of series [3]: Corrosion weight loss test on steel coupons in HCl. Details: Pitting Index: scale not given here.
Excerpt: as §1
This is another data set of the same source.

The nature of series [4]: Corrosion weight loss test on steel coupons in HCl.
Method: Experiments were carried out with coupons of the following steels: • 22Cr125 also designated 2205, a duplex alloy steel which is an iron-chromium-nickel-molybdenum alloy, used (among other things) to fabricate casing. • HS80™ (TradeMark of TENARIS), a low carbon steel used to fabricate coiled tubing. • N80, a medium carbon steel used to fabricate borehole casing. • 13Cr80, an alloy steel containing 13 wt % chromium without nickel, also used to fabricate borehole casing.
(1) Metal Type: Duplex Stainless Steel 22Cr125 Casing (2205 b6); 4 mol/L HCl, T=80° C., 3 Hours Exposure
The nature of series [5]: Solubility in hydrochloric acid solutions. The series is classed as physicochemical. To be noted: compared with NMTHQ. From the text:
As a result, a surfactant is required to solubilise NTHQ for corrosion testing purposes. The surfactant used in this example is P2393, a polyoxyethylene tridecyl ether, C13H27(OCH2CH2)nOH, where n=10.
As a result, a surfactant is required to solubilise NTHQ for corrosion testing purposes. As for example 5 (NTHQ), the surfactant used to solubilise NCOTHQ is P2393, a polyoxyethylene tridecyl ether, C13H27(OCH2CH2)nOH, where n=10.

A short description of series [6]: Rotating Cylinder Electrode electrochemistry, charge transfer resistance. The following applies: 5 mM inhibitor, 10 mM KI, 4 mol/L HCl, 2000 rpm, 80° C.; FIG. 6. The source says:
(§2) EIS can be used to monitor the corrosion rate of a system. The parameter of interest is the charge transfer resistance, Rct, which can be thought of the ‘resistance’ to corrosion. A metal test piece is used as the working electrode in a three-electrode electrochemical cell with the corrosive solution as electrolyte. Impedance data is obtained by applying a small alternating voltage to the working electrode and measuring the resulting current to obtain a value of impedance. This is done at a range of frequencies. Then, in order to extract the parameter of interest, the metal/inhibitor/electrolyte interfaces are modelled as an electrical equivalent circuit and the theoretical impedance is fitted to the data. […] Charge transfer resistance, Rct, is measured. Charge transfer resistance, Rct is a measure for corrosion resistance, and is inversely proportional to corrosion rate (CR). Therefore 1/Rct is proportional to CR.

Assay in series [7]: as above
The following applies: 5 mM inhibitor, 10 mM KI, 4 mol/L HCl, 2000 rpm, 80° C.; FIG. 6.
Excerpt: as §2
The source holds these as a separate data set.

Where [8] appears, read: 0.1542 wt % (5.13 mmol/L), KI 0, 2205 (b9), 5 mL 2-butoxyethanol in 200 mL 4 mol/L HCl.

With `c1ccc2c(CN3CCC[C@H]4CCCC[C@@H]43)cccc2c1` [4aR-8aS-NMDHQ], the “Pitting Index” value is listed as 1 in series [1] (0.3098 wt % (11.09 mmol/L), KI 0); 2 in series [2] (0.3087 wt % (11.05 mmol/L), KI 0); 2 in series [3] (0.3076 wt % (11.01 mmol/L), KI 0, 13Cr); 1 in series [4] (0.3095 wt % (11.08 mmol/L), KI 0, 2205 (b8)).

With `c1ccc2c(CNCCc3c[nH]c4ccccc34)cccc2c1` [HINNME, 2-(1H-indol-3-yl)-N-(naphthalene-1-ylmethyl)ethan-1-amine], the “Pitting Index” value is reported as 0 in series [4] (0.1500 wt % (4.99 mmol/L) + KI 20 mmol/L, 2205 (b9), 5 mL 2-butoxyethanol in 200 mL 4 mol/L HCl) and 2 in series [4] (setting [8]).

As for `[I-].[K+]` [KI, potassium iodide, reference compound], the “Pitting Index” value in series [1] (KI 10 mmol/L alone, no NMTHQ) is 5; in series [2] (KI 10 mmol/L alone, no NMTHQ), 2; in series [3] (KI 10 mmol/L alone, no NMTHQ) it was 5; in series [4] (KI 10 mmol/L alone, no organic inhibitor, 2205 (b5)), 5; in series [4] (KI 20 mmol/L alone, no organic inhibitor, 2205 (b5), 4 mol/L HCl, 80° C., 3 hours), 5.

With `O=C(c1cccc2ccccc12)N1CCCc2ccccc21` [NCOTHQ, (3,4-dihydroquinolin-1(2H)-yl)(naphthalene-1-yl)methanone], the “solubility in hydrochloric acid solutions (in words)” value in series [5] is “significantly less soluble than NMTHQ”.

As to `c1ccc2c(CN3CCCC4CCCCC43)cccc2c1` (stereo not drawn) [NMDHQ, 1-(naphthalen-1-ylmethyl)decahydroquinoline], the “Pitting Index” value turned out to be 0 in series [1] (0.3068 wt % (10.98 mmol/L), KI 0); 2 in series [2] (0.3061 wt % (10.95 mmol/L), KI 0); 2 in series [3] (0.3094 wt % (11.07 mmol/L), KI 0, 13Cr); 0 in series [4] (0.1414 wt % (5.0 mmol/L) + KI 10 mmol/L, 2205 (b8)); 0 in series [4] (0.1414 wt % (5.0 mmol/L) + KI 20 mmol/L, 2205 (b8)); 1 in series [4] (0.3088 wt % (11.05 mmol/L), KI 0, 2205 (b8)).

Turning to `NCCc1cn(Cc2cccc3ccccc23)c2ccccc12` [NMHIE, 2-(1-(Naphthalene-1ylmethyl)-1H-indol-3-yl)ethan-1-amine], the “Pitting Index” value in series [4] (0.1500 wt % (4.99 mmol/L) + KI 20 mmol/L, 2205 (b9), 0.5 wt % P2393 in 4 mol/L HCl) is on record as 0; in series [4] (0.1542 wt % (5.13 mmol/L), KI 0, 2205 (b9), 0.5 wt % P2393 in 4 mol/L HCl) it was 5; in series [4] (setting [8]), 3.

In the case of `c1ccc2c(c1)CCN2Cc1cccc2ccccc12` [NMI, 1-(naphthalen-1-ylmethyl)indoline], the “Pitting Index” value in series [4] (0.1304 wt % (5.03 mmol/L), KI 0, 2205 (b9)) worked out at 3; in series [4] (0.1308 wt % (5.04 mmol/L) + KI 20 mmol/L, 2205 (b9)), 0.

As to `c1ccc2c(CN3CCOCC3)cccc2c1` [NMM, 4-(naphthalene-1-ylmethyl)morpholine], the “Pitting Index” value amounted to 2 in series [4] (0.1397 wt % (5.04 mmol/L) + KI 20.12 mmol/L, 2205 (b9)) and 5 in series [4] (0.1402 wt % (5.05 mmol/L), KI 0, 2205 (b9)).

For `c1ccc2c(c1)CCN(Cc1ccc3ccccc3c1)C2` [NMTHisoQ], the “Pitting Index” value in series [4] (0.1366 wt % (5.00 mmol/L) + KI 20 mmol/L, 2205 (b5), 4 mol/L HCl, 80° C., 3 hours) was determined as 0; in series [4] (0.1367 wt % (5.00 mmol/L), KI 0, 2205 (b5), 4 mol/L HCl, 80° C., 3 hours), 1.

On to `c1ccc2c(c1)CCCN2c1cccc2ccccc12` [NTHQ, 1-(naphthalen-1-yl)-1,2,3,4-tetrahydroquinoline], for which the “Pitting Index” value in series [2] (11.00 mmol/L + additive P2393, 0.5 wt %) is given as 1; in series [4] (11.00 mmol/L + additive P2393, 0.5 wt %, 2205 (b5)), 3. For the same compound, in series [5], the “solubility in hydrochloric acid solutions (in words)” value was “significantly less soluble than NMTHQ”.

`c1ccc2ncccc2c1` [Quinoline, reference compound]: the “Pitting Index” value in series [4] (0.1421 wt % (11.00 mmol/L), 2205 b6, 4 mol/L HCl, 80° C., 3 hours) amounted to 6.

For “naphthylmethylquinolinium chloride [NMQCl, reference compound]”, the “Pitting Index” value in series [1] (0.1534 wt % (5.02 mmol/L), 4 mol/L HCl, 80° C., 3 hours) is 3; in series [1] (0.3386 wt % (11.07 mmol/L), 4 mol/L HCl, 80° C., 3 hours) it was 0; in series [1] (0.3394 wt % (11.10 mmol/L), 4 mol/L HCl, 80° C., 3 hours), 0; in series [2] (0.0015 wt % (0.05 mmol/L), 4 mol/L HCl, 80° C., 3 hours) it was 5; in series [2] (0.06225 wt % (2.04 mmol/L), 4 mol/L HCl, 80° C., 3 hours), 0; in series [2] (0.1531 wt % (5.01 mmol/L), 4 mol/L HCl, 80° C., 3 hours), 0. Moreover, the “Pitting Index” value in series [2] (0.3366 wt % (11.01 mmol/L), 4 mol/L HCl, 80° C., 3 hours) amounted to 0; in series [3] (0.1545 wt % (5.05 mmol/L), 4 mol/L HCl, 80° C., 3 hours) it was 5; in series [3] (0.3466 wt % (11.33 mmol/L), 4 mol/L HCl, 80° C., 3 hours) it was 0; in series [4] (0.123 wt % (4.03 mmol/L), 2205 b6, 4 mol/L HCl, 80° C., 3 hours) it was 4; in series [4] (0.322 wt % (10.54 mmol/L), 2205 b6, 4 mol/L HCl, 80° C., 3 hours), 0; in series [4] (0.612 wt % (20.00 mmol/L), 2205 b6, 4 mol/L HCl, 80° C., 3 hours) it was 0. Besides, the “1/Rct (proportional to corrosion rate), NMHQ compared with NMQCl” value in series [6] and in series [7] was “very similar results” throughout.

(Values after patent publication US10982337B2, “Corrosion inhibition” (SCHLUMBERGER TECHNOLOGY CORPORATION, priority 2015, dated 2021).)
